Assay results: a melting point compilation (Tetko et al.; mined from patent text by program, amines drawn as free bases though some values may be those of a salt)

`CC(C)c1cc(-c2ccc(F)c3ccccc23)nc(NS(C)(=O)=O)n1` showed a melting point of 276 to 277 °C. For `CC(C)(C)OC(=O)NCC1CCN(CC2(C(=O)O)CCC2)CC1`, the melting point was 160 °C. `CC(NC(=O)CN1CCCC1=O)C(=O)N1CC(=O)NC1(C)C` (stereo not given) showed a melting point of 198 to 200 °C. `C=C(c1cc(Cl)ccc1N1CCCCC1)C(C(N)=O)c1ccc(C(=O)OCC)cc1` (stereo not given) gave a melting point of 142 to 145 °C. For `O=C(CCl)Nc1sccc1C(O)c1ccccc1Cl` (stereo not given), the melting point was 118 to 120 °C. With `CCC(Cc1ccc(C(C)C(=O)O)cc1)C(C)O` (stereo not given) the melting point was 100 to 103 °C. In the case of `CNC(=O)C(C#N)C(=O)C1CCC1` (stereo not given), the melting point is reported as 81 to 83 °C. `CSc1nc(O)c(C=O)c(O)n1` showed a melting point greater than 250 °C. Compound `OCCCCCCCCCCCOc1ccccc1` has a melting point of 56 to 58 °C. In the case of `Cc1ccc(-c2nc(-c3ccncc3)cs2)c(=O)[nH]1`, the melting point is reported as greater than 300 °C. `COC(=O)c1ccccc1C(=O)c1ccc(-n2ccnc2)cc1` gave a melting point of 134 to 136 °C. Work on `C=CC[C@H](C(N)=O)[C@@H](CC(C)C)C(=O)NC1C(=O)N(C)c2ccccc2-c2ccccc21` (stereo not given in full) yielded a melting point of 137 to 145 °C. In the case of `O=C(SCCC(=O)N1C(C(=O)NO)CSC1c1ccccc1O)c1ccccc1` (stereo not given), the melting point is reported as 105 to 110 °C. Compound `COc1cc2nc(N)nc(-c3cc(Br)c(C)cc3Br)c2cc1OC` has a melting point of 282 to 284 °C. In the case of `O=CNCc1cccc(-c2ccc(Br)cc2)n1`, the melting point is reported as 115 to 119 °C. Compound `Cc1cccc(C(=O)NC(C)C)c1[N+](=O)[O-]` has a melting point of 126 to 128 °C. `CS(=O)(=O)c1ccc(-c2nn(Cc3ccccc3)c(=O)cc2-c2ccccc2)cc1` showed a melting point of 211 to 212 °C. `COCCc1nc2c(N)nc3c(c2n1CCOCCN(C)C(=O)Nc1ccccc1)CCCC3` gave a melting point of 168 to 170 °C. With `COc1ccc(F)cc1Oc1c(Cl)ncnc1NS(=O)(=O)c1ccc(C(F)(F)F)cc1` the melting point was 185 to 186 °C. With `CCCCCCCCCCC1(CCCCCCCCCC)c2cc(Br)ccc2-c2ccc(N(c3ccccc3)c3ccccc3)cc21` the melting point was 66.8 to 69.2 °C. Compound `CCCOc1ccccc1-c1nc2nc(NC)ncc2c(=O)[nH]1` has a melting point of 235 to 236 °C. For `Oc1nc(Cl)nc(NN=Cc2cc(C(F)(F)F)cc(C(F)(F)F)c2)n1`, the melting point was 258 °C. Work on `C#CC1C2=C(C(=O)CCC2)c2ccc(OC(=O)C(C)(C)C)cc2N1C(=O)Oc1ccccc1` (stereo not given) yielded a melting point of 140 to 142 °C. For `CCCCCCC(=O)Nc1cccc2c1C(=O)N(C1(C)CCC(=O)NC1=O)C2=O` (stereo not given), the melting point was 172 to 174 °C. Compound `O=C(OCc1ccccc1)c1ccc2cc(-c3ccc(C(O)CO)c(C45CC6CC(CC(C6)C4)C5)c3)ccc2c1` (stereo not given) has a melting point of 193 °C. With `COc1ccc(N)c2c1oc1ccccc12` the melting point was 167 to 169 °C. Work on `CC1=C(c2cccc(C(F)(F)F)c2)n2ncc3c(=O)[nH]c(=S)n(c32)C1` yielded a melting point of 269 to 271 °C. `COc1cc(C2(O)CCOCC2)ccc1OCc1ccc2ccccc2c1` gave a melting point of 150 to 151 °C. In the case of `O=C(O)c1ccc(-c2nc(-c3cc(C(F)(F)F)cc(C(F)(F)F)c3)co2)cc1`, the melting point is reported as 277 to 279 °C. Compound `CCN(CC)CC#CCNC(=O)C(O)(c1ccccc1)C1CCCCC1` (stereo not given) has a melting point of 102 to 104 °C. For `CS(=O)(=O)c1ccc(C2=C(c3ccccc3)C(=NOCc3ccccc3)C2)cc1`, the melting point was 148 to 150 °C. Work on `COC1(OC)SC(c2nccs2)=C(C)NC1=O` yielded a melting point of 127 to 128 °C. Work on `CCCNc1ccc(C#CCCN2CC=C(c3ccccc3)CC2)nc1` yielded a melting point of 138 to 139 °C. With `CC(C)OCC(O)COc1ccc(/C=C/C(=O)O)c(Oc2ncc(C(F)(F)F)cc2Cl)c1` (stereo not given) the melting point was 92 to 93 °C. With `CC(=O)N[C@@H](C)COc1ccc2nc(-c3ccc(OCC4CC4)c(F)c3)oc2c1` the melting point was 174 °C. `O=C(Nc1cccc(OCc2cccnc2)c1)N1CCCC1` gave a melting point of 138 to 140 °C. Compound `BrCc1ccc(-c2ccc3c(c2)OCO3)cc1` has a melting point of 78 to 81 °C. Compound `CC(C)=CC#Cc1cc(C)cc(Oc2cc(C(F)(F)F)nn2C)n1` has a melting point of 85 °C. For `CN(C(=O)COc1cc(C(F)(F)C(F)(F)F)no1)c1ccccc1`, the melting point was 88 to 89 °C. Work on `Cc1cc(NC(=O)C(C)(O)COc2ccc(OCCCl)cc2)ccc1[N+](=O)[O-]` (stereo not given) yielded a melting point of 131 to 133 °C.
